# Measurements: patent US20110124745A1, “Switchable Anionic Surfactants and Methods of Making and Using Same” (priority 2009, published 2011)
# Experiments:
# Type in all cases: physicochemical
# [1] = pKa of the protonated (neutral) form
# [2] = Switching from (1N) to (1A) using exposure to air; conditions: D2O with Na2CO3, uncapped, stirred at room temperature, 90 min
# Procedure: A solution of anionic surfactant (1A) was prepared by combining octyl 4-hydroxy-3-nitrobenzoate (1N) (0.023 g) and Na2CO3 (0.068 g) in 8.0 mL of D2O. The resultant solution was homogenized by sonication for 2 min. Aliquots (1.00 mL) of this solution were transferred by Hamilton syringe with a least count of 0.005 mL, into three different vials, which were labeled as vials A, B and C. Visual observations were made of vials A, B and C after 0, 30 and 90 min of stirring at room temperature under separate conditions as described below and are presented in FIG. 3A, 3B and 3C, respectively. […] The solution in vial A remained in the ON form (1A) throughout the experiment and it appeared as a yellow homogeneous solution that was free of any solids. A magnetic stir bar was introduced in vials B and C. The surfactant solutions in vials B and C were turned OFF by allowing a stream of CO2 provided by a needle to blow, CO2 at the surface of the solutions (the needle was not allowed to dip or touch the surface of the solution). Vial C was then capped and its cap was supplemented by […]™ to inhibit CO2 leakage. Thus at the beginning of this experiment, which is pictured in FIG. 3A, vial A held a solution in the ON form, and vials B and C held a solution in the OFF form. Vial B was then uncapped and stirred under passive exposure to air. Vial C was stirred under a passive CO2 headgas. […]
# [3] = Switching efficiency by 1H NMR, method B (DMF internal standard); conditions: relative to DMF standard set to 100
# Description: In both methods, to quantify the concentration of surfactant in solution, its ^1H NMR integration was compared to one of two internal standards of known concentration. In addition to the difference in which internal standard was used, the two methods can also be distinguished from each other on the basis of the timing of the addition of the internal standard. In method A, the standard remains in the solution during the process of switching. In method B, the switching is executed first and the DMF solution of known strength and quantity is added in to the solution.
# In both methods, the surfactant was turned OFF with CO2 by positioning the needle that supplied the CO2 to the surfactant solution above the solution in such a way that the slow flow of CO2 was allowed to interact with the surfactant solution at the surface. The switching from ON to OFF required 5 min or less. Increasing the surface area, for example, by slightly tilting the vial, expedited the switching from ON to OFF. To turn the surfactant ON, the solution was stirred at 70° C. for 40 min as described above. After each ON cycle, 0.5 mL of D2O was added to the solution to compensate for the loss in the volume caused by evaporation.
# The surfactant solution was prepared by combining 0.046 g of octyl 4-hydroxy-3-nitrobenzoate and 0.136 g of Na2CO3 in 16.0 mL of D2O. The resultant solution was homogenized by sonication for 2 min. 1.00 mL of this solution was transferred using a Hamilton syringe into thirteen different vials (1, 2, 2*, 3, 4, 5, 6, 7, 8, 9, 10, 11 and 12). Stirring bars were introduced in vials 2* through 12. […] The surfactant in vial 2 was turned OFF by the procedure described above. The solution in vial 2* was turned OFF with CO2 and was then left stirring uncapped at room temperature for 18 h. All the vials (excluding 2*) were tightly capped and left at room temperature for 18 h to confirm the stability of the systems in both the ON/OFF forms upon standing.
# The standard solution of DMF was prepared by mixing 0.005 mL of DMF in 8.0 mL of D2O. […] The ^1H NMR spectra of all solutions were recorded. […]
SMILES,pKa [1],conversion of OFF form to ON form by passive exposure to air [2],"Proton integration at ~7.3 δ ([3]; filtered solution, vials 2, 4, 6, 8, 10, 12: cycles of Table 1 ending OFF (CO2))","Proton integration at ~7.3 δ ([3]; D2O with Na2CO3, vial 1, control, never switched (ON))","Proton integration at ~7.3 δ ([3]; vial 2*: turned OFF with CO2, then stirred uncapped at room temperature)"
"CCCCCCCCOC(=O)c1ccc(O)c([N+](=O)[O-])c1 [compound (1N), octyl 4-hydroxy-3-nitrobenzoate]",~5.5,passive exposure to air is sufficient,0,,
"CCCCCCCCOC(=O)c1ccc(O)c([N+](=O)[O-])c1 [compound (1A), 2-nitro-4-(octyloxycarbonyl)phenolate]",,,,46,45
